Assay results reported in ChEMBL document CHEMBL5212743, “Selectivity Literature for EUbOPEN Chemogenomics Library wave 3” (2023).

Assays:
[1] = target: Substance-K receptor (Homo sapiens) (UniProt P21452); test: Selectivity interaction (CEREP panel (ligand receptors, ion channels, transporters)) EUB0000330a TACR2; conditions: at 1 µM
CREB-binding protein = CREB-binding protein (Homo sapiens, UniProt Q92793); test: Selectivity interaction (Bromodomain panel (DSF assay)) EUB0000330a CREBBP
[2] = target: Serine/threonine-protein kinase 17A (Homo sapiens) (UniProt Q9UEE5); test: Selectivity interaction (Kinase panel (ProQinase)) EUB0000631a STK17A; conditions: at 1 µM
Chain of Serine/threonine-protein kinase 17A (Homo sapiens) (Q9UEE5 whole entry): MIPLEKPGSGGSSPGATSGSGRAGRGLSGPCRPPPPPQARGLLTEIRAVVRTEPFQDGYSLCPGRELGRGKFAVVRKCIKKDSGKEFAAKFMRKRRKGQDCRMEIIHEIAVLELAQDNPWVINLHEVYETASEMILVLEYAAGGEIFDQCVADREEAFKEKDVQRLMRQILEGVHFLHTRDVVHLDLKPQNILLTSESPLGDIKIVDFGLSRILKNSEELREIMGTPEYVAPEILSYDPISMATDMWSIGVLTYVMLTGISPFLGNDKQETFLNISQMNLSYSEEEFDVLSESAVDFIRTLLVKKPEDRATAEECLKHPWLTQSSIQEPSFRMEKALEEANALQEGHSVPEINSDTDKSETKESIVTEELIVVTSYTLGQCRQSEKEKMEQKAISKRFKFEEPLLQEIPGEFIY

[3] = target: T1, Mitogen-activated protein kinase 15 (Homo sapiens) (UniProt Q8TD08); test: Selectivity interaction (Dundee panel (140 kinases and 19 lipid kinases)) EUB0000631a MAPK15; conditions: at 1 µM
T1 sequence (whole entry): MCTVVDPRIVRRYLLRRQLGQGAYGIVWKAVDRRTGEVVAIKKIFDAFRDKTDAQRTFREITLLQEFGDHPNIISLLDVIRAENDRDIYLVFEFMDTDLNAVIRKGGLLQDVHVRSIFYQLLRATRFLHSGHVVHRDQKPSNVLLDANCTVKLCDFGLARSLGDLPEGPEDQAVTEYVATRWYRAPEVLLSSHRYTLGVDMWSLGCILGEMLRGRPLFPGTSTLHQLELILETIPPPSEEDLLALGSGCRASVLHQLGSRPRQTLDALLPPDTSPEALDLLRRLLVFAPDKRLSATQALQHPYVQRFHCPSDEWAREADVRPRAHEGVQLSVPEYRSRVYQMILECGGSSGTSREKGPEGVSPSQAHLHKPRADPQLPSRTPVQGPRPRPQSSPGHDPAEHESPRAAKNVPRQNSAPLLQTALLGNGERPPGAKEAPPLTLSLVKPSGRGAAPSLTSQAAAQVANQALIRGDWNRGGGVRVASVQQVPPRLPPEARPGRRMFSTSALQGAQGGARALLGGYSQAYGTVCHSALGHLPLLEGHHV

[4] = target: Mitogen-activated protein kinase kinase kinase 7 (Homo sapiens) (UniProt O43318); test: Selectivity interaction (Dundee panel (140 kinases and 19 lipid kinases)) EUB0000631a MAP3K7; conditions: at 1 µM
[5] = target: Casein kinase I isoform epsilon (Homo sapiens, UniProt P49674); test: Selectivity interaction (Radioisotope filter binding assay (Reaction Biology)) EUB0000696a CSNK1E; conditions: at 1 µM
Chain of Casein kinase I isoform epsilon (P49674 whole entry, looked up, canonical isoform): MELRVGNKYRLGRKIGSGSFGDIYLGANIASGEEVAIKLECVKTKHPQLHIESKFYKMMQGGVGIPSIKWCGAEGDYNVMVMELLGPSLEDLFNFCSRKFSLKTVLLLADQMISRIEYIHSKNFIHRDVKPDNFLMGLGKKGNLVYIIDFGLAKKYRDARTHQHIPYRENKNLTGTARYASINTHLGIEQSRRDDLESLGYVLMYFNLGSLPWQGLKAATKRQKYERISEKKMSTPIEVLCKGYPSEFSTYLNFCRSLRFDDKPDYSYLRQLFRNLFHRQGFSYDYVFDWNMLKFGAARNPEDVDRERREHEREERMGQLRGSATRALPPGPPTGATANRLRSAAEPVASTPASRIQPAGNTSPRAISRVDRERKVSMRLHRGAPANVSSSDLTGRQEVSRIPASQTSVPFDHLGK

[6] = target: Phosphatidylinositol 4,5-bisphosphate 3-kinase catalytic subunit beta isoform (Homo sapiens) (UniProt P42338); test: Selectivity interaction (KinomeScan (DiscoverX)) EUB0000014b PIK3CB; conditions: at 1 µM
Chain of Phosphatidylinositol 4,5-bisphosphate 3-kinase catalytic subunit beta isoform (Homo sapiens) (P42338 whole entry, looked up, canonical isoform): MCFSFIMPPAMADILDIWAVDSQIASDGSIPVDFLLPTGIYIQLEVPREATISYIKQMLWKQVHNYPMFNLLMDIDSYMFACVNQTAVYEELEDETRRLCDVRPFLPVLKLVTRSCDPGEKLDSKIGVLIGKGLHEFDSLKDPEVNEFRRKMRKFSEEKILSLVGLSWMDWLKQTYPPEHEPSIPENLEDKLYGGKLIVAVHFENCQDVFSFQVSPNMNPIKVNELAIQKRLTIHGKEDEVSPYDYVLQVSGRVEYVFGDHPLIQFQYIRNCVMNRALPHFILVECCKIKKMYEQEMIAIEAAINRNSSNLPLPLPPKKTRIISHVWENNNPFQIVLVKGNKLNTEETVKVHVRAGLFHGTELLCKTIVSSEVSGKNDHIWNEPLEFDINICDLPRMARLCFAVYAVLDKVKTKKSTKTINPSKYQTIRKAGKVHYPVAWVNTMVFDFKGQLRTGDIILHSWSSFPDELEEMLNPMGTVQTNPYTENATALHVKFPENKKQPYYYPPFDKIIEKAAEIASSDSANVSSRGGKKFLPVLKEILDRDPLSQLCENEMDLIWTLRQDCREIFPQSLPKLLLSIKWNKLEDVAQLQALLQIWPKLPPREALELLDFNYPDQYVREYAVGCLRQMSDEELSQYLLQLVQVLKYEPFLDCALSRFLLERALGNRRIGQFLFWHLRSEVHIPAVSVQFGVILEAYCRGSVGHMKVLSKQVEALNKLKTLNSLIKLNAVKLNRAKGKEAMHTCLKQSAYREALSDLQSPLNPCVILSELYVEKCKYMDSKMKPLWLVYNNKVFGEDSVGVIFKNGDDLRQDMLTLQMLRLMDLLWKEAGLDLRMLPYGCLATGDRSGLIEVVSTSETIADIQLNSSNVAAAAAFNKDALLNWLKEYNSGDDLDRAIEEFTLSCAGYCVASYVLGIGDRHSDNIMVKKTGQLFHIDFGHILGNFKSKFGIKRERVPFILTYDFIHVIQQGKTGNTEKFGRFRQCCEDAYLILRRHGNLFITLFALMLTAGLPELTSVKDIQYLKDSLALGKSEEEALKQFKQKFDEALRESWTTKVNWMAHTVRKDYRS

[7] = target: Serine/threonine-protein kinase DCLK2 (Homo sapiens) (UniProt Q8N568); test: Selectivity interaction (KinomeScan (Ambit)) EUB0000687a DCLK2; conditions: at 10 µM
[8] = target: Serine/threonine-protein kinase PLK4 (Homo sapiens) (UniProt O00444); test: Selectivity interaction (KinomeScan (Ambit)) EUB0000687a PLK4; conditions: at 10 µM
[9] = target: Receptor-type tyrosine-protein kinase FLT3 (Homo sapiens) (UniProt P36888); test: Selectivity interaction (Kinase panel) EUB0000214b FLT3; conditions: at […]
[10] = target: 5-hydroxytryptamine receptor 2B (Homo sapiens, UniProt P41595); test: Selectivity interaction (GPCR panel (PDSP screen)) EUB0000336a HTR2B; conditions: at 1 µM
[11] = target: Serine/threonine-protein kinase Nek5 (Homo sapiens) (UniProt Q6P3R8); test: Selectivity interaction (KinomeScan (DiscoverX)) EUB0000336a NEK5; conditions: at 1 µM
[12] = target: Epidermal growth factor receptor (Homo sapiens, UniProt P00533); test: Selectivity interaction (KinomeScan (DiscoverX)) EUB0000336a EGFR; conditions: at 1 µM
Chain of Epidermal growth factor receptor (P00533 whole entry): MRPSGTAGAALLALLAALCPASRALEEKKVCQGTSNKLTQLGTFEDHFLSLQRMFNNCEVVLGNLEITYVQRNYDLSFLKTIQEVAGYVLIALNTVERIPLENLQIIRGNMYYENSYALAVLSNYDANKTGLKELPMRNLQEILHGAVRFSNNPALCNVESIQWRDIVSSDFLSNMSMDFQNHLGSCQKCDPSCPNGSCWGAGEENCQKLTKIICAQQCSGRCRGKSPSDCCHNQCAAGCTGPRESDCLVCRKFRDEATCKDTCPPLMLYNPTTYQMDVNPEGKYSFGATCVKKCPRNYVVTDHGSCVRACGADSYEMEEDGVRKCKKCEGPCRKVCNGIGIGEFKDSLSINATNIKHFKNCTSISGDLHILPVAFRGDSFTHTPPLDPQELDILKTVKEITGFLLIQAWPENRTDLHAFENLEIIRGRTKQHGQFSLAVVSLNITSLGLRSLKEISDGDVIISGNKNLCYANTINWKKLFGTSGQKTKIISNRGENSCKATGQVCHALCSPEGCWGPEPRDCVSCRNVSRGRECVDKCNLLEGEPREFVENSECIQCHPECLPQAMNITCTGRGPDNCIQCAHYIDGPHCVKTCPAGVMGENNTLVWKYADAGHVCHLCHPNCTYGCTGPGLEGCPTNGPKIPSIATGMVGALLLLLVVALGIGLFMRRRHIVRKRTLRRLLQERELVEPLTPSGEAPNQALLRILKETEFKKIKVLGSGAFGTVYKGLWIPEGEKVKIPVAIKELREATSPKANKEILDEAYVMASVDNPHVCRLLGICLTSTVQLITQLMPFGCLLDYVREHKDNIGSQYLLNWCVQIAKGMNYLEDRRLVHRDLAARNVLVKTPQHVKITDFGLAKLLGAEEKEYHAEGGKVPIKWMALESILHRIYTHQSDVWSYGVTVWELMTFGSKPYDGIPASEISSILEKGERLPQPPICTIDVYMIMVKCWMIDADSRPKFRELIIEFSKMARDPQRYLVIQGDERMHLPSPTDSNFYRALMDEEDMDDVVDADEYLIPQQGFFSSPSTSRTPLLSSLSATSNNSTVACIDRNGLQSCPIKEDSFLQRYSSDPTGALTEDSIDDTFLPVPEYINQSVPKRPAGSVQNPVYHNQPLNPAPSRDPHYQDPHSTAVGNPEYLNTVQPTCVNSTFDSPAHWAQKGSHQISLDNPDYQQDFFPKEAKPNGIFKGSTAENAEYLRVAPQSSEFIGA

[13] = target: T2, Phosphatidylinositol 5-phosphate 4-kinase type-2 gamma (Homo sapiens) (UniProt Q8TBX8); test: Selectivity interaction (KinomeScan (DiscoverX)) EUB0000336a PIP4K2C; conditions: at 1 µM
T2 sequence (whole entry): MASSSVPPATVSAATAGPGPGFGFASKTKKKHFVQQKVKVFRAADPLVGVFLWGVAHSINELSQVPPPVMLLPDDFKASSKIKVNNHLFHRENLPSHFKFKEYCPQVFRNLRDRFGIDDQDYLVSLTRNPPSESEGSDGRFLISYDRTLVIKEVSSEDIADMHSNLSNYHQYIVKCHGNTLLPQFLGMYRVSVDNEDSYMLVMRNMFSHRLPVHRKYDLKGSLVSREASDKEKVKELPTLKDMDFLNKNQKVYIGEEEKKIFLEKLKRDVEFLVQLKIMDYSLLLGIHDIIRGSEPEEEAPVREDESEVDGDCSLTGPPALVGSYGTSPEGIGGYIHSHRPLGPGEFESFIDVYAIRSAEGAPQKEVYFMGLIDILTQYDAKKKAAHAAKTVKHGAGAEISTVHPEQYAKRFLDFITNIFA

[14] = target: Tyrosine-protein kinase receptor Tie-1 (Homo sapiens) (UniProt P35590); test: Selectivity interaction (KinomeScan (DiscoverX)) EUB0000336a TIE1; conditions: at 1 µM
[15] = target: Phosphatidylinositol 4,5-bisphosphate 3-kinase catalytic subunit alpha isoform (Homo sapiens, UniProt P42336); test: Selectivity interaction (KinomeScan (DiscoverX)) EUB0000336a PIK3CA; conditions: at 1 µM
[16] = target: MAP/microtubule affinity-regulating kinase 3 (Homo sapiens) (UniProt P27448); test: Selectivity interaction (KinomeScan (DiscoverX)) EUB0000315b MARK3; conditions: at 1 µM
[17] = target: SRSF protein kinase 2 (Homo sapiens) (UniProt P78362); test: Selectivity interaction (KinomeScan (DiscoverX)) EUB0000315b SRPK2; conditions: at 1 µM
[18] = test system: Receptor-type tyrosine-protein kinase FLT3 (Homo sapiens), P36888 [UNDEFINED MUTATION]; test: Selectivity interaction (KinomeScan (DiscoverX)) EUB0000315b FLT3; conditions: at 1 µM
[19] = target: T3, Adenosine receptor A1 (Homo sapiens) (UniProt P30542); test: Selectivity interaction (Eurofins CEREP Diversity Profiling (71 receptors, ion channels, and 25 other enzymes)) EUB0000231c ADORA1; conditions: at 10 µM
T3 sequence (whole entry): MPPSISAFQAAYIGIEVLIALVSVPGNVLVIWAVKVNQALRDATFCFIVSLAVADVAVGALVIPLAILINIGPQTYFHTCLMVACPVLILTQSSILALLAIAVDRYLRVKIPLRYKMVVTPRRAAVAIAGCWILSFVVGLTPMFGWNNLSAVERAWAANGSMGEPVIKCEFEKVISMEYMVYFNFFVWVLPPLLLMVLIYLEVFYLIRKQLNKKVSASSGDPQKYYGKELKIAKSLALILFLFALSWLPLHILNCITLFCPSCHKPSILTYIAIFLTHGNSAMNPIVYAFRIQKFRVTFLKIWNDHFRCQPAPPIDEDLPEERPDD

[20] = target: T4, Gamma-aminobutyric acid receptor subunit alpha-1 (Homo sapiens) (UniProt P14867); test: Selectivity interaction (Eurofins CEREP Diversity Profiling (71 receptors, ion channels, and 25 other enzymes)) EUB0000231c GABRA1; conditions: at 10 µM
T4 sequence (whole entry): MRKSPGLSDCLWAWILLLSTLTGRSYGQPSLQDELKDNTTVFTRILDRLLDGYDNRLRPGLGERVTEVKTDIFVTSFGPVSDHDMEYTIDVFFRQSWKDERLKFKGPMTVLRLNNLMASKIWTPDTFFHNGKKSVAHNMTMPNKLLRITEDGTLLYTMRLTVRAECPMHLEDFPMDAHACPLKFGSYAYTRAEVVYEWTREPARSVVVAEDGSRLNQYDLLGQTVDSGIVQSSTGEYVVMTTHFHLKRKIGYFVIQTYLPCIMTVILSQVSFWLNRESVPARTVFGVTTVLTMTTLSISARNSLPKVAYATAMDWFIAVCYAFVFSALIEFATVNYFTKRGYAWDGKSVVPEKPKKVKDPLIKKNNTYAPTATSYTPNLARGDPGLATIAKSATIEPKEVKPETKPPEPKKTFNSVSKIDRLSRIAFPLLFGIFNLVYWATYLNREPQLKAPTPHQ

[21] = target: cGMP-dependent 3',5'-cyclic phosphodiesterase (Homo sapiens) (UniProt O00408); test: Selectivity interaction (Eurofins CEREP Diversity Profiling (71 receptors, ion channels, and 25 other enzymes)) EUB0000231c PDE2A; conditions: at 10 µM
[22] = target: cGMP-inhibited 3',5'-cyclic phosphodiesterase 3A (Homo sapiens, UniProt Q14432); test: Selectivity interaction (Eurofins CEREP Diversity Profiling (71 receptors, ion channels, and 25 other enzymes)) EUB0000231c PDE3A; conditions: at 10 µM
[23] = target: 3',5'-cyclic-AMP phosphodiesterase 4D (Homo sapiens) (UniProt Q08499); test: Selectivity interaction (Eurofins CEREP Diversity Profiling (71 receptors, ion channels, and 25 other enzymes)) EUB0000231c PDE4D; conditions: at 10 µM
Chain of 3',5'-cyclic-AMP phosphodiesterase 4D (Homo sapiens) (Q08499 whole entry): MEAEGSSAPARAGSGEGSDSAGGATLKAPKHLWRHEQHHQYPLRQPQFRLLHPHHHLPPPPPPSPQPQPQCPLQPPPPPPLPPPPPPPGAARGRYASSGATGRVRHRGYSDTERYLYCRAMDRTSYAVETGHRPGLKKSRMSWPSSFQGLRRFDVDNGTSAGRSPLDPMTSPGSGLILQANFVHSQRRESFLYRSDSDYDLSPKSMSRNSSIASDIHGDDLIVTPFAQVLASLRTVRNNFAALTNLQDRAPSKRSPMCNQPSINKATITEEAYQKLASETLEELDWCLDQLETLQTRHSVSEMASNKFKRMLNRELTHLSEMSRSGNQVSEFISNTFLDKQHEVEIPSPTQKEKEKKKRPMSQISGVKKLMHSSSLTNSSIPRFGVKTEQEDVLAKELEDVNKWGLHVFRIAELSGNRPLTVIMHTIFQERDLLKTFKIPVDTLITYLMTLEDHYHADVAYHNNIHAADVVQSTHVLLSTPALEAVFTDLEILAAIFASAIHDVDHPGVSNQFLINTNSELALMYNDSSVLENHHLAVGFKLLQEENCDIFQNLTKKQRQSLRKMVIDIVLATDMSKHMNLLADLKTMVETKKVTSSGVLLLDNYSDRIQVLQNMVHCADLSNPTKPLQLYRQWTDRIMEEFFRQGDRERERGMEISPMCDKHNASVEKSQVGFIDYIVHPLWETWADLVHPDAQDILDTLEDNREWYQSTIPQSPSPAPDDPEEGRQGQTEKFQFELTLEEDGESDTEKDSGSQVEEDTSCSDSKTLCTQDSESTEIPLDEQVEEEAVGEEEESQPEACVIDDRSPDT

[24] = target: 5-hydroxytryptamine receptor 7 (Homo sapiens, UniProt P34969); test: Selectivity interaction (GPCR panel (PDSP screen)) EUB0000317b HTR7; conditions: at 10 µM
Chain of 5-hydroxytryptamine receptor 7 (P34969 whole entry): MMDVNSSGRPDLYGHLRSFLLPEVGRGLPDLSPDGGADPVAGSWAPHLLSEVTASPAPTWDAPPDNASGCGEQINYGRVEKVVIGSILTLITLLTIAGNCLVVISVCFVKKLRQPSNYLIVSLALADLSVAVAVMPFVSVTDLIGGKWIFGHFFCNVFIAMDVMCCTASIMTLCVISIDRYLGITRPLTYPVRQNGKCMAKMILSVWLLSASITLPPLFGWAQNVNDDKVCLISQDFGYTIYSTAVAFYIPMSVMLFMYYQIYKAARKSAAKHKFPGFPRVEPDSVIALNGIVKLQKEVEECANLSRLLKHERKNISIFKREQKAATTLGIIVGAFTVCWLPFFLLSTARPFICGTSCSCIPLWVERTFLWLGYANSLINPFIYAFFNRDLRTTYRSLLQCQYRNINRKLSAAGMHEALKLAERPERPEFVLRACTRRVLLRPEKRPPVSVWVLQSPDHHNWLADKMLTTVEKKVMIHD

[25] = target: Serine/threonine-protein kinase 38-like (Homo sapiens, UniProt Q9Y2H1); test: Selectivity interaction (KinomeScan (DiscoverX)) EUB0000317b STK38L; conditions: at 1 µM
Chain of Serine/threonine-protein kinase 38-like (Q9Y2H1 2-464 limits assumed): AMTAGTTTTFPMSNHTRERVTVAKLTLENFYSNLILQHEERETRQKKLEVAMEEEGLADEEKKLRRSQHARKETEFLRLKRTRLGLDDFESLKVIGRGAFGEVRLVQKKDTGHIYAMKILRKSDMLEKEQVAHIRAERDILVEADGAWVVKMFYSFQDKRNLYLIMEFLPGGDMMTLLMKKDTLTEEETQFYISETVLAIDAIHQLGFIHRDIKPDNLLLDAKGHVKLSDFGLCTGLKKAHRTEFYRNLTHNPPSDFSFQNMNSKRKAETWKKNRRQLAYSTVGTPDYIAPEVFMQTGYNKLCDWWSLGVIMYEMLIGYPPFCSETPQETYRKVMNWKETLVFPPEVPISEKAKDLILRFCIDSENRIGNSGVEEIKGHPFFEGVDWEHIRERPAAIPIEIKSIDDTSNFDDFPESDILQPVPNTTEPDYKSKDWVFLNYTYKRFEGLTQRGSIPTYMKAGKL

For `Cc1sc2c(c1C)C(c1ccc(Cl)cc1)=N[C@@H](CC(=O)OC(C)(C)C)c1nnc(C)n1-2`, the % bound fraction [1] was 48% and the dTm (CREB-binding protein) was 1.04 K.
With `CC(C)(O)CNc1ncc(-c2ccnc(Nc3ccnc(Cl)c3)n2)c(CC2CC2)n1` the % of activity remaining [2] was 45%, the % of activity remaining [3] was 32% and the % of activity remaining [4] was 40%.
`CC(C)Oc1ccc(-c2nn([C@@H](C)c3oc4ccc(F)cc4c(=O)c3-c3cccc(F)c3)c3ncnc(N)c23)cc1F` was tested, and the % of control [5] was 39%.
Compound `Nc1ccc(C(=O)Nc2cccc(-c3nc(N4CCOCC4)c4oc5ncccc5c4n3)c2)cn1` has a % of control [6] of 9.8%.
Work on `CCOc1cc(C(=O)N2CCC(N3CCN(C)CC3)CC2)ccc1Nc1ncc2c(n1)N(C1CCCC1)c1ccccc1C(=O)N2C` yielded a % of control [7] of 3.6% and a % of control [8] of 5.1%.
In the case of `O=C(c1ccc(C(=O)N2CCC(N3CCCC3)CC2)c(Nc2ccccc2)c1)N1CCC(N2CCCC2)CC1`, the % of control [9] is reported as 64%.
Compound `Cc1nc(Cc2cccc(C(F)(F)F)c2)sc1-c1ccc(C(N)=O)nc1` has a % of inhibition [10] of 34%, a % of control [11] of 35% and a % of control [12] of 0%. The % of control [13] was 0.3%, the % of control [14] was 28% and the % of control [15] was 15%.
In the case of `Cn1nc(C(F)(F)F)cc1-c1cnc(N2CCc3cc(S(=O)(=O)Nc4c(F)cc(Cl)cc4F)cc(N4CCCC4=O)c32)nc1`, the % of control [16] is reported as 12%, the % of control [17] is reported as 34% and the % of control [18] is reported as 32%.
With `CC(=O)c1cc(-c2cc(C(=O)NC3CC3)ccc2C)c2ncccn12` the % of control [19] was 14%, the % of control [20] was 47% and the % of control [21] was 25%. It also gave a % of control [22] of 48% and a % of control [23] of 28%.
`Cc1cc(-n2nc(Cc3cc(F)cc(C(F)(F)F)c3)nc2C)ccc1C(N)=O` was tested, and the inhibition [24] was 21% and the % of control [25] was 49%.
